For the assay, the target named is T1, TBK1 (Homo sapiens, UniProt Q9UHD2).
T1 construct: All protein kinases were of human origin and encoded full length proteins, unless indicated otherwise; His6; made in house; host or cells: insect Sf21 cells
T1 sequence (Q9UHD2 1-729): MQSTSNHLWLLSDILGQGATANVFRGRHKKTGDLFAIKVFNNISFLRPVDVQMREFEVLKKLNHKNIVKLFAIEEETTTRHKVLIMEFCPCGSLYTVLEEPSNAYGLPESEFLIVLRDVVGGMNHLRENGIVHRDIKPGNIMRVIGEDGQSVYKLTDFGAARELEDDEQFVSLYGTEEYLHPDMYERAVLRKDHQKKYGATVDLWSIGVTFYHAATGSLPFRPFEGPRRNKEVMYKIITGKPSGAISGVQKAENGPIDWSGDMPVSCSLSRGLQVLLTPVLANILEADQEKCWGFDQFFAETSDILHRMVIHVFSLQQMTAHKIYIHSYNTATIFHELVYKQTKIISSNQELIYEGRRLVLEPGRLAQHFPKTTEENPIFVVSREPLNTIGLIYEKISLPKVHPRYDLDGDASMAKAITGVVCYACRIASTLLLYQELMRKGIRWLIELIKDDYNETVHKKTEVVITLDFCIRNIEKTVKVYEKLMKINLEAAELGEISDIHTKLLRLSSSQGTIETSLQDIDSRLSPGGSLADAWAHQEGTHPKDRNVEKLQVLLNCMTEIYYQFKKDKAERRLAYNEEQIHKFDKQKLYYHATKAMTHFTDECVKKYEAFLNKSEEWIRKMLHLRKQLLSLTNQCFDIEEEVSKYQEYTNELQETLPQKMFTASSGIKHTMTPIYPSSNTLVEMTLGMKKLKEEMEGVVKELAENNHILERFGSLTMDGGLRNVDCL
Put plainly: TBK1 protein kinase assay ([γ-33P]ATP filter-plate, IC50 from 10 concentrations). It is filed as biochemical. As to conditions: 50 μM ATP, peptide substrate 300 μM, 30 min, 21° C.; read-out: Potency score (TBK1 IC50). An excerpt:
All protein kinases were of human origin and encoded full length proteins, unless indicated otherwise. They were either expressed as glutathione S-transferase (GST) fusion proteins in Escherichia Coli or as hexahistidine (His6)-tagged proteins in insect Sf21 cells. GST fusion proteins were purified by affinity chromatography on glutathione-Sepharose, and His6-tagged proteins on nickel/nitriloacetate-agarose. The procedures for expressing some of the protein kinases used herein have been detailed previously.^8,9 The following sections outline the DNA vectors synthesised and the procedures used to express and purifying protein kinases that have not been reported previously.
The following kinases were expressed in Sf21 cells: Aurora B and Aurora C, extra-cellular signal-regulated kinase 8 (ERK8), microtubule affinity regulating kinase 3 (MARK3), protein kinase Bα[118-480][S473D], protein kinase Bβ (PKBβ[120-481][S474D], 3-phosphoinositide-dependent protein kinase-1 [52-556] (PDK1[52-556], IKKε, TBK1,
All assays (25.5 μl) were carried out at room temperature (21° C.) and were linear with respect to time and enzyme concentration under the conditions used. Assays were performed for 30 min using Multidrop Micro reagent dispensers (Thermo Electron Corporation, Waltham, Mass. 02454, USA) in a 96-well format. The concentration of magnesium acetate in the assays was 10 mM and the [γ-33P] ATP (800 cpm/pmol) was used at 5, 20 or 50 μM as indicated, in order to be at or below the Km for ATP for each enzyme. Protein kinases assayed at 5 μM ATP were: ERK1, ERK8, PKBα, MARK3, Aurora C. Protein kinases assayed at 20 μM ATP were: JNK1, PDK1, CHK1, CHK2, CDK2 and Aurora B. Protein kinases assayed at 50 μM ATP were: MNK2, IKKepsilon and TBK1.
The assays were initiated with MgATP, stopped by addition of 5 μl of 0.5 M orthophosphoric acid and spotted on to P81 filterplates using a unifilter harvester (PerkinElmer, Boston, Mass. 02118, USA). The IC50 values of inhibitors were determined after carrying out assays at 10 different concentrations of each compound.
ERK1 and ERK8 were both assayed against myelin basic protein (MBP, 0.33 mg/ml). MARK3 was assayed against the peptide […] (300 μM), MNK2 against the eIF4E protein (0.5 mg/ml). PKBβ was assayed against the peptide GRPRTSSFAEGKK (30 μM). TBK1 were assayed against ([…]) (300 μM). The substrates used for other protein kinases were described previously.^8,9
Unless stated otherwise, enzymes were diluted in 50 mM Tris/HCl pH 7.5, 0.1 mM EGTA, 1 mg/ml BSA, 0.1% (v/v) 2-mercaptoethanol and assayed in 50 mM Tris/HCl pH 7.5, 0.1 mM EGTA, 0.1% (v/v) 2-mercaptoethanol.

Broadly, the IC50 is the concentration at which inhibition is half-maximal.

With `O=C(NCCCn1ccc2cnc(Nc3cccc(F)c3)nc21)C1CCCC1` [Example 32, Cyclopentanecarboxylic acid {3-[2-(3-fluoro-phenylamino)-pyrrolo[2,3-d]pyrimidin-7-yl]-propyl}-amide], the IC50 was 100 to 1000 nM.

On to `O=C(NCCCn1ccc2cnc(Nc3cccc(F)c3)nc21)c1cccs1` [Example 10, Thiophene-2-carboxylic acid {3-[2-(3-fluoro-phenylamino)-pyrrolo[2,3-d]pyrimidin-7-yl]-propyl}-amide], for which the IC50 is < 100 nM.

Take `CN1CCN(c2ccc(Nc3ncc4ccn(CCCNC(=O)C5CCC5)c4n3)cc2)CC1` [Example 4, Cyclobutanecarboxylic acid (3-{2-[4-(4-methyl-piperazin-1-yl)-phenylamino]-pyrrolo[2,3-d]pyrimidin-7-yl}-propyl)-amide]: the IC50 was < 100 nM.

Consider `CN1CCc2ccc(Nc3ncc4ccn(CCCNC(=O)C5CCC5)c4n3)cc2C1` [Example 53, Cyclobutanecarboxylic acid {3-[2-(2-methyl-1,2,3,4-tetrahydro-isoquinolin-7-ylamino)-pyrrolo[2,3-d]pyrimidin-7-yl]-propyl}-amide], for which the IC50 is < 100 nM.

`Cn1cc(Nc2ncc3ccn(CCCNC(=O)C4CCC4)c3n2)cn1` [Example 8, Cyclobutanecarboxylic acid {3-[2-(1-methyl-1H-pyrazol-4-ylamino)-pyrrolo[2,3-d]pyrimidin-7-yl]-propyl}-amide]: the half-inhibitory concentration (IC50) is < 100 nM.

Take `CC(C)CC(=O)NCCCn1ccc2cnc(Nc3ccc(N4CCOCC4)nc3)nc21` [Example 19, 3-Methyl-N-{3-[2-(6-morpholin-4-yl-pyridin-3-ylamino)-pyrrolo[2,3-d]pyrimidin-7-yl]-propyl}-butyramide]: the half-inhibitory concentration (IC50) was in the range of 100 to 1000 nM.

Turning to `O=C(NCCCn1ccc2cnc(Nc3ccc4nccn4c3)nc21)C1CCC1` [Example 45, Cyclobutanecarboxylic acid {3-[2-(imidazo[1,2-a]pyridin-6-ylamino)-pyrrolo[2,3-d]pyrimidin-7-yl]-propyl}amide], the IC50 is < 100 nM.

On to `O=C(NCCCn1ccc2cnc(Nc3ccc(N4CCOCC4)nc3)nc21)C1CCCC1` [Example 16, Cyclopentanecarboxylic acid {3-[2-(6-morpholin-4-yl-pyridin-3-ylamino)-pyrrolo[2,3-d]pyrimidin-7-yl]-propyl}-amide], for which the IC50 was < 100 nM.

In the case of `O=C(NCCCn1ccc2cnc(Nc3cccc(CN4CCCC4)c3)nc21)C1CCC1` [Example 6, Cyclobutanecarboxylic acid {3-[2-(3-pyrrolidin-1-ylmethyl-phenylamino)-pyrrolo[2,3-d]pyrimidin-7-yl]-propyl}-amide], the IC50 is < 100 nM.

On to `N#Cc1cccc(Nc2ncc3ccn(CCCNC(=O)c4cccs4)c3n2)c1` [Example 11, Thiophene-2-carboxylic acid {3-[2-(3-cyano-phenylamino)-pyrrolo[2,3-d]pyrimidin-7-yl]-propyl}-amide], for which the half-inhibitory concentration (IC50) lay within 100 to 1000 nM.

As to `Cn1ncc2ccc(Nc3ncc4ccn(CCCNC(=O)C5CCC5)c4n3)cc21` [Example 2, Cyclobutanecarboxylic acid {3-[2-(1-methyl-1H-indazol-6-ylamino)-pyrrolo[2,3-d]pyrimidin-7-yl]-propyl}-amide], the IC50 is < 100 nM.

In the case of `O=C(NCCCn1ccc2cnc(Nc3cccc(CN4CCOCC4)c3)nc21)C1CCC1` [Example 52, Cyclobutanecarboxylic acid {3-[2-(3-morpholin-4-ylmethyl-phenylamino)-pyrrolo[2,3-d]pyrimidin-7-yl]-propyl}-amide], the half-maximal inhibitory concentration (IC50) was < 100 nM.

For `O=C(NCCCn1ccc2cnc(Nc3cccc(N4CCCC4=O)c3)nc21)C1CCC1` [Example 29, Cyclobutanecarboxylic acid (3-{2-[3-(2-oxo-pyrrolidin-1-yl)-phenylamino]-pyrrolo[2,3-d]pyrimidin-7-yl}-propyl)-amide], the IC50 was in the range of 100 to 1000 nM.

The values above are taken from patent publication US20120088753A1, “PYRROLOPYRIMIDINES AND USED AS KINASE INHIBITORS” (MEDICAL RESEARCH COUNCIL TECHNOLOGY, priority 2009, published 2012).
